Measurements from patent publication US8828982B2, “Pyrimidine derivatives for the prevention of HIV infection” (Janssen Pharmaceutica N.V., priority 2003, dated 2014).

Experiments:
Type in all cases: cell-based
[1] = tested on: monotropic HIV strain Ba-L; experiment: In vitro model c) (standard infection experiment), MO-DC/CD4(+) T cell co-cultures, ELISA for HIV antigens after 14 days; settings: concentration suppressing 50% of viral replication at end of primary culture (14 days), test compound present throughout, MOI 10^-3
Description: Monocyte-derived dendritic cells (MO-DC) were infected for 2 hours with the monotropic HIV strain Ba-L at a multiplicity of infection (MOI) of 10^−3. After infection, cells were washed 6 times and resuspended in 10% BCS at 400.000 cells/ml. Autologous CD4(+) T cells were purified out of the lymphocyte fraction of the same elutration as the MO-DC and used at a concentration of 2×10^6 cells/ml ((ratio MO-DC/CD4(+) T: 1/5).
A serial dilution of a compound of formula (I) (test compound) was added to the MO-DC/CD4(+) T cell co-cultures. Each experiment was done in 96-well plates, in which each cup contained 50 μl of MO-DC, 50 μl of CD4(+) T cells and 100 μl of test compound. Half of the culture medium, with test compound, was refreshed twice weekly, during 14 days. Supernatants were analysed by ELISA after 14 days of culture for the presence of HIV antigens. To determine antiviral activity, the test compound concentration able to suppress 50% of the viral replication at the end of the primary cultures (EC50) was measured.

[2] = tested on: MO-DC/CD4(+) T cell co-cultures (MO-DC stimulators, allogenic CD4(+) T cells responders); experiment: Immune suppressive activity in mixed leucocyte culture (MLC), standard assay; settings: concentration inhibiting 50% of [methyl-3H]-Thymidine incorporation, 5 days of culture, compound present throughout, read-out: ISC50 (nM) (Test B, standard assay))
Description: (§1) The compounds of formula (I) were tested for their immune-suppressive activity (defined as ISC50 value) in a classical MLC in which monocyte-derived dendritic cells (MO-DC) were used as stimulators and allogenic CD4(+) T cells as responders. A dilution series of test compound was added to the MO-DC/CD4(+) T cell co-cultures. After 5 days of culture, 20 μl of [methyl-3H]-Thymidine was added to each well and cultures were harvested after 7 hours. Analysis was done on a Topcount scintillation counter. The immune suppressive concentration (ISC50) is defined as the test compound concentration inhibiting 50% of normal immune proliferation (test compound concentration inhibiting 50% of [methyl-3H]-Thymidine incorporation). (standard MLC assay)

HIV strain Ba-L = experiment: In vitro model b) (24 hour infection experiment), MO-DC co-cultured with autologous T4 cells
Description: Monocyte-derived dendritic cells (MO-DC) were co-cultured with autologous T4 cells and infected with HIV strain Ba-L at a multiplicity of infection (MOI) of 10^−3. A serial dilution of test compound was added at the time of infection. After 24 hours, 96-well plates were washed 3 times (test compound and free virus washed away) and medium (without test compound) was added. Half of the medium was refreshed twice a week. Culture supernatants were harvested after 7 and 14 days of culture. After 14 days, cultures were washed 3 times and PHA/IL-2 stimulated PBMC were added for a secondary culture to check for viral rescue. During secondary culture, half of the medium was refreshed twice weekly (IL-2 medium, without test compound). Supernatants were harvested after 1 and 2 weeks of secondary culture. After 2 weeks of secondary culture, cells were also harvested for PCR analysis. Supernatants were analysed in ELISA for the presence of HIV […] during primary and secondary culture.

[3] = tested on: MO-DC/CD4(+) T cell co-cultures (MO-DC stimulators, allogenic CD4(+) T cells responders); experiment: Immune suppressive activity in mixed leucocyte culture (MLC), 24 hour assay; settings: test compound present only during first 24 hours of the 5-day culture; read-out: ISC50 (nM) (Test B, 24 hour assay))
Description: The compounds of formula (I) were tested for their immune-suppressive activity (defined as ISC50 value) in a classical MLC in which monocyte-derived dendritic cells (MO-DC) were used as stimulators and allogenic CD4(+) T cells as responders.
as §1, with “A” for “The compounds of formula (I) were tested for their immune-suppressive activity (defined as ISC50 value) in a classical MLC in which monocyte-derived dendritic cells (MO-DC) were used as stimulators and allogenic CD4(+) T cells as responders. A”
For the 24 hour assay, the test compound was only present during the first 24 hours of the 5-day culture period. After 24 hours, the cultures were washed (three times) and culture medium without compound was added. The experimental set-up was from then on similar to the standard MLC assay described above.

HIV = HIV replication inhibition test of "C. Pharmacological example" of WO 2003/016306; settings: test described in WO 2003/016306
Text: Due to their antiretroviral properties, particularly their anti-HIV properties, especially their anti-HIV-1-activity, the compounds of formula (I), their N-oxides, pharmaceutically acceptable addition salts, quaternary amines and stereochemically isomeric forms thereof, are useful in the treatment of individuals infected by HIV. The HIV replication inhibiting effect of the compounds of formula (I) is described in WO 2003/016306. Compound 255 has a pIC50 value of 9.00 when tested in the test described under the heading “C. Pharmacological example” of WO 2003/016306.

Structure (SMILES)	EC50 ([1]; Human immunodeficiency virus 1, BAL, T-cell, 336 h) [nM]	IC50 ([2]; Leucocyte, 120 h) [nM]	EC50 [1] [nM]	IC50 [2] [nM]	cups tested positive in ELISA after 7 days of primary culture (HIV strain Ba-L; concentrations ranging from 10,000 to 10 nM, 6 cups)	EC50 (HIV strain Ba-L; test compound added at time of infection and washed away after 24 hours, MOI 10^-3) [nM]	IC50 [3] [nM]	pIC50 (HIV)
Cc1cc(/C=C/c2ccncc2)cc(C)c1Nc1ccnc(Nc2ccc(C#N)cc2)n1 [Compound 162]	5.5	1140						
Cc1cc(/C=C/C#N)cc(C)c1Oc1ccnc(Nc2ccc(C#N)cc2)n1 [Compound 255, 4-[[4-[4-(2-cyanoethenyl)-2,6-dimethylphenoxy]-2-pyrimidinyl]amino]benzonitrile (E)]			0.05	20200	none out of 6	2	24600	9.00
